From patent US11596611B2, “Hepatitis B antiviral agents” (ENANTA PHARMACEUTICALS, INC., priority 2017, dated 2023)
Read-outs that look alike come from different tables or passages of the source.

System: HBV
Assay: HepAD38 antiviral assay: reduction of viral product accumulation (virion DNA by qPCR, HBsAg or HBeAg by ELISA)
Type: cell-based, hepatitis B virus
Details: Hepatitis B virus
Summary of the method: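 Readouts were qPCR of lysed virion DNA plus ELISA for HBsAg or HBeAg, samples diluted into linear range. HepAD38 cells, washed free of tetracycline, received compound diluted 1:200 from DMSO for 5 days; 8-day variant refreshed media and compound on days 2 and 5.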

[1] = 120 h, HepAD38 cells, five days after compound addition, 50% reduction of viral product vs no drug controls, read-out: HepAD38 EC50

| SMILES | EC50 [1] | EC50 (HePAD38, 120 h, read-out: HepAD38 EC50 (μM)) |
| --- | --- | --- |
| CC(C)(O)/C=C\[C@]1(O)C2CCC1C[C@@H](S(=O)(=O)c1cc(C(=O)Nc3cc(F)c(F)c(F)c3)ccc1Cl)C2 [Example 21] | < 0.104 µM |  |
| O=C(Nc1ccc(F)c(F)c1)c1ccc(Cl)c(S(=O)(=O)C2CC(O)(CCO)C2)c1 (stereo not drawn) [Example 240] | > 0.2 µM |  |
| O=C(Nc1ccc(F)c(F)c1)c1ccc(Cl)c(S(=O)(=O)[C@H]2CC3CCC(C2)[C@]3(O)[C@H](O)c2ccc(F)cn2)c1 (single isomer, unassigned) [Example 291b] | < 0.104 µM |  |
| CN1C2CCC1CC(S(=O)(=O)c1cc(C(=O)Nc3cc(F)c(F)c(F)c3)ccc1Cl)C2 (stereo not drawn) [Example 145] | > 0.2 µM |  |
| C[C@]1(O)C2CCC1C[C@@H](S(=O)(=O)c1cc(C(=O)Nc3ccc(F)c(CO)c3)ccc1Cl)C2 [Example 166] | < 0.104 µM |  |
| CC(O)C[C@]1(O)CC[C@@H](CS(=O)(=O)c2cc(C(=O)Nc3ccc(F)c(F)c3)ccc2Cl)CC1 (stereo partly drawn) [Example 224] | 0.1 to 0.2 µM |  |
| O=C(Nc1ccc(F)c(F)c1)c1ccc(Cl)c(S(=O)(=O)[C@H]2CC3CCC(C2)[C@]3(O)C(O)Cn2cccn2)c1 (stereo partly drawn) [Example 314] | < 0.104 µM |  |
| CC(C)([C@H]1CC[C@@H](O)CC1)S(=O)(=O)c1cc(C(=O)Nc2ccc(F)c(F)c2)ccc1Cl [Example 235] | > 0.2 µM |  |
| O=C(Nc1ccc(F)c(F)c1)c1ccc(Cl)c(S(=O)(=O)C2CO[C@@H]3C(O)CO[C@H]23)c1 (stereo partly drawn) [Example 201] | > 0.2 µM |  |
| COC(=O)[C@H]1C[C@@H](S(=O)(=O)c2cc(C(=O)Nc3ccc(F)c(F)c3)ccc2Cl)C1 [Example 250b] | > 0.2 µM |  |
| COC(=O)N1CC[C@H](O)[C@H]1C(=O)NC[C@@]1(O)C2CC[C@H]1C[C@H](S(=O)(=O)c1cc(C(=O)Nc3cc(F)c(F)c(F)c3)ccc1Cl)C2 [Example 79] | > 0.2 µM |  |
| O=C(Nc1cc(F)c(F)c(F)c1)c1ccc(Cl)c(S(=O)(=O)[C@H]2CC3CCC(C2)[C@]3(O)CNC(=O)C2CCOC2)c1 (stereo partly drawn) [Example 87] | < 0.104 µM |  |
| Cc1cccc([C@H](O)[C@@]2(O)C3CC[C@H]2C[C@H](S(=O)(=O)c2cc(C(=O)Nc4ccc(F)c(F)c4)ccc2Cl)C3)n1 [Example 294a] | < 0.104 µM |  |
| O=C(Nc1ccc(F)c(F)c1)c1ccc(Cl)c(S(=O)(=O)[C@H]2CC3CCC(C2)[C@]3(O)C(O)c2ccccn2)c1 (stereo partly drawn) [Example 284] | < 0.104 µM |  |
| CC(O)[C@@]1(O)C2CC[C@H]1C[C@H](S(=O)(=O)c1cc(C(=O)Nc3cc(F)c(F)c(F)c3)ccc1Cl)C2 (mixture of isomers) [Example 210] | < 0.104 µM |  |
| O=C(Nc1ccc(F)c(F)c1)c1ccc(Cl)c(S(=O)(=O)C2CC(O)(CO)C2)c1 (stereo not drawn) [Example 220] | > 0.2 µM |  |
| O=C(C[C@]1(O)C2CCC1C[C@@H](S(=O)(=O)c1cc(C(=O)Nc3cc(F)c(F)c(F)c3)ccc1Cl)C2)Nc1nccs1 [Example 138] | < 0.104 µM |  |
| CC(C)(C)OC(=O)N1CC[C@@H](O)[C@H]1C(=O)NC[C@@]1(O)C2CC[C@H]1C[C@H](S(=O)(=O)c1cc(C(=O)Nc3cc(F)c(F)c(F)c3)ccc1Cl)C2 [Example 76] | < 0.104 µM |  |
| C[C@]1(O)C2CCC1C[C@@H](S(=O)(=O)c1cc(C(=O)Nc3ccc(F)c(F)c3)c(Br)cc1Cl)C2 [Example 100] | < 0.104 µM |  |
| COC(=O)N[C@@H](C)C(=O)N1C2CCC1CC(S(=O)(=O)c1cc(C(=O)Nc3cc(F)c(F)c(F)c3)ccc1Cl)C2 (single isomer, unassigned) [Example 141] |  | 0.1 to 0.2 µM |
| O=C(Nc1ccc(F)c(F)c1)c1ccc(Cl)c(S(=O)(=O)[C@@H]2CC3CC[C@@H](C2)[C@@]3(O)C(O)c2cccc(C(F)F)n2)c1 (stereo partly drawn) [Example 350] | < 0.104 µM |  |
| O=C(Nc1ccc(F)c(F)c1)c1ccc(Cl)c(S(=O)(=O)[C@H]2CC3CCC(C2)[C@]3(O)C(O)C(O)CN2CCCS2(=O)=O)c1 (stereo partly drawn) [Example 320] | < 0.104 µM |  |
| CC(=O)C(=O)[C@@]1(O)C2CC[C@H]1C[C@H](S(=O)(=O)c1cc(C(=O)Nc3ccc(F)c(F)c3)ccc1Cl)C2 [Example 336] | < 0.104 µM |  |
| COC(=O)N1CC[C@@H](O)[C@H]1C(=O)NC[C@]1(O)C2CCC1C[C@@H](S(=O)(=O)c1cc(C(=O)Nc3cc(F)c(F)c(F)c3)ccc1Cl)C2 [Example 78] | > 0.2 µM |  |
